Reference: paper PMC2529273, “Pharmacological Properties of DOV 315,090, an ocinaplon metabolite” (BMC Pharmacology, 2008)
Where two headings read alike, the source gives them in different places.

Experiments:
α5β2γ2S GABAA-R [1] = molecular target: T1, α5β2γ2S GABAA-R (Rattus norvegicus, UniProt P18508+P19969); experiment: cell-based
Method: (§1) cRNAs encoding GABAA-R α1, α2, α3, α5, β2 and γ2S subunits were injected into oocytes from Xenopus laevis. […] GABA (Sigma) was prepared as a 1 M stock solution in ND96. Microelectrodes of 1–3 MΩ when filled with 3 M KCl were used to record from oocytes in a recording chamber continuously perfused with ND-96 buffer solution. During data acquisition, oocytes were clamped at a holding potential of -70 mV. Drugs were applied by perfusion at a rate of approximately 50 μl sec^-1 for 20 s followed by a 120 s wash. […] All experiments were performed at room temperature (22–24°C).
(§2) GABA concentration-response data was obtained for each subunit combination, and the GABA EC10 was determined by nonlinear regression using the logistic equation. This concentration of GABA was used for modulation studies. Peak current measurements were normalized and expressed as a fraction of the peak control current measurements. Control responses to an EC10 concentration of GABA were re-determined after every 2 – 4 applications of modulator + GABA. […] Potentiation data from each oocyte was fitted to the equation Potentiation = Emax × [Drug]/([Drug + EC50) by non-linear regression (Prism, Graph-Pad software). […] Given the lack of consistency of this possible high affinity effect, we have omitted it in fitting our concentration-effect curves. The choice of fitting to a monophasic or biphasic equation had only a small effect on the EC50 for the major component of modulation.
(§3) Rat GABAA-Rs consisting of α1β2γ2S, α2β2γ2S, α3β2γ2S and α5β2γ2S subunits were expressed in Xenopus oocytes. […] Higher concentrations (in parentheses) were excluded from the fit due to a decline in potentiation at higher concentrations.

α2β2γ2S GABAA-R [2] = molecular target: T2, α2β2γ2S GABAA-R (Rattus norvegicus, UniProt P18508+P23576); experiment: cell-based
Method: as §1, §2, §3

α1β2γ2S GABAA-R [3] = molecular target: T3, α1β2γ2S GABAA-R (Rattus norvegicus, UniProt P18508+P62813); experiment: cell-based
Method: as §1, §2, §3

α3β2γ2S GABAA-R [4] = molecular target: T4, α3β2γ2S GABAA-R (Rattus norvegicus, UniProt P18508+P20236); experiment: cell-based; format: cell-based
Method: as §1, §2, §3

in vivo = format: in vivo, rat; settings: in vivo; rat, one animal excluded from the plot, 10 min after oral 5 mg/kg ocinaplon, may have regurgitated part of the dose; read-out: blood level
Method: At 1 h, corresponding to the time at which the anticonflict effect of ocinaplon was evaluated, the plasma concentration of DOV 315,090 is ~38% of the concentration of parent compound.
Figure 2 Pharmacokinetics of ocinaplon and DOV 315,090. Blood levels of ocinaplon (●,○) and DOV 315090 (▲,△) were determined at various times after i.v. (●,▲) or oral (○,△) administration of 5 mg/kg ocinaplon to rats. […] This animal may have regurgitated a portion of the dose (of the suspension).

α5β2γ2S GABAA-R [5] = molecular target: T1, α5β2γ2S GABAA-R; experiment: biochemical; format: binding
Method: (§4) HEK293 cells (CRL 1573, American type Culture Collection, Rockville, MD, USA) were cultured in Dulbecco's modified Eagle's medium (D-MEM, Invitrogen, Carlsbad, CA, USA) supplemented with 10% fetal bovine serum (Invitrogen, Carlsbad, CA, USA) and 1% MEM Non-Essential Amino Acids Solution (Invitrogen, Carlsbad, CA, USA). cDNAs encoding rat GABAA-R subunits were in the following vectors: α1 and α5 in pRc/CMV, α2, α3, γ2S and γ3 in pcDNA3 and β2 in pcDNA1. The cells were transiently transfected (5 μg of each cDNA per 100 mm dish) using FuGene™ (Roche Diagnostics Corporation) at a 3:1 FuGene:DNA ratio. […] Forty-eight hours after transfection, cells were washed with ice-cold PBS, harvested and homogenized. Cell homogenates were centrifuged (100,000 g, 25 min) and washed three times by homogenization in ice-cold PBS buffer followed by centrifugation at 100,000 g for 25 min. The final pellets were stored at -20°C until needed.
(§5) The samples were then diluted with 5 ml of ice-cold buffer and filtered under vacuum through glass-fiber filters (GF/B Whatman). Filters were washed 3 times with 5 ml of buffer and the radioactivity was quantitated by liquid scintillation counting in 5 ml of Ecolite scintillation fluid (ICN). Non-specific binding determined in the presence of 100 μM Ro 15–1788 (Sigma-Aldrich) was subtracted from total binding to calculate specific binding. Data were analyzed by non-linear regression (Prism, Graph-Pad software).

α1β2γ3 GABAA-R = molecular target: T5, α1β2γ3 GABAA-R (Rattus norvegicus, UniProt P28473+P62813); experiment: biochemical; format: binding
T5 construct: expressed in transfected cells; host or cells: HEK293 (CRL 1573), transient transfection
Method: as §4, §5

α3β2γ2S GABAA-R [6] = molecular target: T4, α3β2γ2S GABAA-R; experiment: biochemical; format: binding
Method: as §4, §5

α5β2γ3 GABAA-R = molecular target: T6, α5β2γ3 GABAA-R (Rattus norvegicus, UniProt P19969+P28473); experiment: biochemical; format: binding
T6 construct: expressed in transfected cells; host or cells: HEK293 (CRL 1573), transient transfection
Method: as §4, §5

α2β2γ3 GABAA-R = molecular target: T7, α2β2γ3 GABAA-R (Rattus norvegicus, UniProt P23576+P28473); experiment: biochemical; format: binding
T7 construct: expressed in transfected cells; host or cells: HEK293 (CRL 1573), transient transfection
Method: as §4, §5

α2β2γ2S GABAA-R [7] = molecular target: T2, α2β2γ2S GABAA-R; experiment: biochemical; format: binding
Method: as §4, §5

α1β2γ2S GABAA-R [8] = molecular target: T3, α1β2γ2S GABAA-R; experiment: biochemical; format: binding
Method: as §4, §5

[9] = [3H]Ro15-1788 displacement, n = 3, read-out: IC50
[10] = mean ± SEM, n = 3, read-out: pIC50 (converted)

T1 sequence (P19969 32-464 limits assumed): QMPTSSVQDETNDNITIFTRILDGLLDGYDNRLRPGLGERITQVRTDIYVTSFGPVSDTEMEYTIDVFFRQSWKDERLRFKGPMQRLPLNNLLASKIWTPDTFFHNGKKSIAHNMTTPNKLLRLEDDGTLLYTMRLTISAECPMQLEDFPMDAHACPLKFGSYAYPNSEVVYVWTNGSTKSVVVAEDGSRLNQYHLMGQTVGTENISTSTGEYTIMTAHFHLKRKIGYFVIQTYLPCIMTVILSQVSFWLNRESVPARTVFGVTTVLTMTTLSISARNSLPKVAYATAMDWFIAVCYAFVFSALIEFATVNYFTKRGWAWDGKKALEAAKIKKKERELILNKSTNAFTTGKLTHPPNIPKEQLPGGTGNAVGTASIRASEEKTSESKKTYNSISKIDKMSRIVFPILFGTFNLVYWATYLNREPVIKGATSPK
T1 sequence (P63138 25-474 partner limits assumed): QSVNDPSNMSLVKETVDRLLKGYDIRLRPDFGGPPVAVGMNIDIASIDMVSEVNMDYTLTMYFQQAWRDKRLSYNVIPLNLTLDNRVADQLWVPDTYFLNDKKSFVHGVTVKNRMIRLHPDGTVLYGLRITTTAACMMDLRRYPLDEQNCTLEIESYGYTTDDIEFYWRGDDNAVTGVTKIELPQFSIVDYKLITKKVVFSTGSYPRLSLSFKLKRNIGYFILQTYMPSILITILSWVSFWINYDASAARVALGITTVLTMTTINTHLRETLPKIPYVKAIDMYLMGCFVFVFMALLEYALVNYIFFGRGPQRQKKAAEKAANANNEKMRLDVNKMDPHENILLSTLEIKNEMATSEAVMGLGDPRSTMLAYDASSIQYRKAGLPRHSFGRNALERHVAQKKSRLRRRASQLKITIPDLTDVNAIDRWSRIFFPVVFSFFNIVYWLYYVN
T1 sequence (P18508 39-466): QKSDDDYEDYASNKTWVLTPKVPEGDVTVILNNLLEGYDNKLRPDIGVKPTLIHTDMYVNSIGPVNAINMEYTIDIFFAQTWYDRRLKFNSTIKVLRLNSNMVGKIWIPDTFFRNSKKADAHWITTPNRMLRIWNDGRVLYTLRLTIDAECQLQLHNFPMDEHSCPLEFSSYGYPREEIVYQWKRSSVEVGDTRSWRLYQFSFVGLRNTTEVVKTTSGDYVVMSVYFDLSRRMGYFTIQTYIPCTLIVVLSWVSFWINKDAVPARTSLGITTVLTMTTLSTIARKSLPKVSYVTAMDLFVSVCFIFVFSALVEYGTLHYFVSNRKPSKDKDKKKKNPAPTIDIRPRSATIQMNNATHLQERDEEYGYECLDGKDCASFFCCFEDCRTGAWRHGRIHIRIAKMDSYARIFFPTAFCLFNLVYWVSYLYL
T6 sequence (P19969 32-464 limits assumed): as the sequence (P19969 32-464 limits assumed) above
T6 sequence (P63138 25-474 partner limits assumed): as the sequence (P63138 25-474 partner limits assumed) above
T6 sequence (P28473 18-467): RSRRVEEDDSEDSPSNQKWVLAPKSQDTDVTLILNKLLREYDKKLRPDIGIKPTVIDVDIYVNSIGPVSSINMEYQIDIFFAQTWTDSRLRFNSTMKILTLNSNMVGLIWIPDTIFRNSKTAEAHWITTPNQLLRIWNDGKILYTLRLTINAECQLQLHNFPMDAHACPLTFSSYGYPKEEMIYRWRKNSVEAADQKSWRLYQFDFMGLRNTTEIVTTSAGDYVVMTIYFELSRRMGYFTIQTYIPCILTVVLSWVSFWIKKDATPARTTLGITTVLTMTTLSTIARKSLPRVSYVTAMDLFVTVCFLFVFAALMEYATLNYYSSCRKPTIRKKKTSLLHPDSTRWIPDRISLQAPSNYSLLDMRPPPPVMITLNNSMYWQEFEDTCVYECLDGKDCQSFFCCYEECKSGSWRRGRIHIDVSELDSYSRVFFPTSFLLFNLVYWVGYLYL
T5 sequence (P62813 28-455): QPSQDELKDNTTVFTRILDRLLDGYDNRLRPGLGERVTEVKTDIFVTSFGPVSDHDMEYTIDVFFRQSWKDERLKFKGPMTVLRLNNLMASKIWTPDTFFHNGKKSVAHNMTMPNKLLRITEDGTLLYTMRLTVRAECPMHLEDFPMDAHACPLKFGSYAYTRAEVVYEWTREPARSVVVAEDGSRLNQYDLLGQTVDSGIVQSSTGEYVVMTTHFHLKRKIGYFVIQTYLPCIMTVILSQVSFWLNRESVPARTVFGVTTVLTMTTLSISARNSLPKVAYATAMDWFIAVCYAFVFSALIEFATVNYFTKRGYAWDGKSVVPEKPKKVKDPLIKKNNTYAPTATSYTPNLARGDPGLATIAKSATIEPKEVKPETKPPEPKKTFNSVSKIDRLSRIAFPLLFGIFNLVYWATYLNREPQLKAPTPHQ
T5 sequence (P63138 25-474 partner limits assumed): as the sequence (P63138 25-474 partner limits assumed) above
T5 sequence (P28473 18-467): as the sequence (P28473 18-467) above
T3 sequence (P62813 28-455): as the sequence (P62813 28-455) above
T3 sequence (P63138 25-474 partner limits assumed): as the sequence (P63138 25-474 partner limits assumed) above
T3 sequence (P18508 39-466): as the sequence (P18508 39-466) above
T4 sequence (P20236 29-493): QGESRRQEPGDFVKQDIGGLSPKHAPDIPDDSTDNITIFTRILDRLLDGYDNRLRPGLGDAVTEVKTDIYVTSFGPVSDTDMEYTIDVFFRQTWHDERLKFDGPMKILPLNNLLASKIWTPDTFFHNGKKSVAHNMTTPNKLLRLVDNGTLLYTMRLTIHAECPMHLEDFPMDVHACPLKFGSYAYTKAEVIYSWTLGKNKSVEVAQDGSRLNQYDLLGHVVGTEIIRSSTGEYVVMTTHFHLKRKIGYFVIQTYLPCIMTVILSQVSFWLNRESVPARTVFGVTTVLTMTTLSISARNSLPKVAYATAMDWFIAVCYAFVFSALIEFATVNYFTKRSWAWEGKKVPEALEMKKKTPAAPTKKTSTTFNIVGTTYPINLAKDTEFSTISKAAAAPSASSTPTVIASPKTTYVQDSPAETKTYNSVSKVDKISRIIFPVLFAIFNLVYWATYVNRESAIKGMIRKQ
T4 sequence (P63138 25-474 partner limits assumed): as the sequence (P63138 25-474 partner limits assumed) above
T4 sequence (P18508 39-466): as the sequence (P18508 39-466) above
T7 sequence (P23576 29-451): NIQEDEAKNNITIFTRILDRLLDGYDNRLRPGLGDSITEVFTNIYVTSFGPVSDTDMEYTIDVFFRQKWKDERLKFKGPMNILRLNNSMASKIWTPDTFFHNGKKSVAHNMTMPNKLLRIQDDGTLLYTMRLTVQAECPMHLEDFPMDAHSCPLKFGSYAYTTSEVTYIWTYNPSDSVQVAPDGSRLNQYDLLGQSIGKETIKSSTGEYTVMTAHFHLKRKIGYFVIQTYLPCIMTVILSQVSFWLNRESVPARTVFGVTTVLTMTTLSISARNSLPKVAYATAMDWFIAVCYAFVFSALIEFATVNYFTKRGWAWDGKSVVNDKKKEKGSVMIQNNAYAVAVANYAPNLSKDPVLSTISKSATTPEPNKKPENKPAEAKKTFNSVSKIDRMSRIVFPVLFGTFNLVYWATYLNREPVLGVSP
T7 sequence (P63138 25-474 partner limits assumed): as the sequence (P63138 25-474 partner limits assumed) above
T7 sequence (P28473 18-467): as the sequence (P28473 18-467) above
T2 sequence (P23576 29-451): as the sequence (P23576 29-451) above
T2 sequence (P63138 25-474 partner limits assumed): as the sequence (P63138 25-474 partner limits assumed) above
T2 sequence (P18508 39-466): as the sequence (P18508 39-466) above

## CN1C(=O)CN=C(c2ccccc2)c2cc(Cl)ccc21 [diazepam, reference compound]
α5β2γ2S GABAA-R [1]
  Emax: 224 ± 24%
α2β2γ2S GABAA-R [2]
  Emax: 157 ± 14%
α1β2γ2S GABAA-R [3]
  Emax: 144 ± 8%
α3β2γ2S GABAA-R [4]
  Emax: 232 ± 31%

## O=C(c1ccccn1)c1cnn2c(-c3ccncc3)ccnc12 [ocinaplon, 2-pyridinyl [7-(4-pyridinyl)pyrazolo[1,5-a]pyrimidin-3-yl]methanone]
In vivo
  concentration at 10 min: 470 ng/mL
α5β2γ2S GABAA-R [1]
  Emax: 84 ± 4%
α5β2γ2S GABAA-R [1]; α5β2γ2S, GABA EC10, mean ± SEM, read-out: pEC50 (converted)
  EC50: 3.31 µM
α5β2γ2S GABAA-R [1]; α5β2γ2S, GABA EC10, number of oocytes in parentheses, read-out: EC50
  EC50: 3.5 µM
α5β2γ2S GABAA-R [1]; α5β2γ2S, ratio to diazepam EC50
  EC50/DZ EC50: 139
α5β2γ2S GABAA-R [1]; α5β2γ2S, ratio to diazepam Emax
  Emax/DZ Emax: 0.37
α2β2γ2S GABAA-R [2]
  Emax: 150 ± 6%
α2β2γ2S GABAA-R [2]; α2β2γ2S, GABA EC10, number of oocytes in parentheses, read-out: EC50
  EC50: 9.12 µM
α2β2γ2S GABAA-R [2]; α2β2γ2S, ratio to diazepam EC50
  EC50/DZ EC50: 350
α2β2γ2S GABAA-R [2]; α2β2γ2S, ratio to diazepam Emax
  Emax/DZ Emax: 0.95
α1β2γ2S GABAA-R [3]
  Emax: 132 ± 8%
α1β2γ2S GABAA-R [3]; α1β2γ2S, GABA EC10, mean ± SEM, read-out: pEC50 (converted)
  EC50: 2.69 µM
α1β2γ2S GABAA-R [3]; α1β2γ2S, GABA EC10, number of oocytes in parentheses, read-out: EC50
  EC50: 2.93 µM
α1β2γ2S GABAA-R [3]; α1β2γ2S, ratio to diazepam EC50
  EC50/DZ EC50: 77
α1β2γ2S GABAA-R [3]; α1β2γ2S, ratio to diazepam Emax
  Emax/DZ Emax: 0.91
α3β2γ2S GABAA-R [4]
  Emax: 181 ± 18%
α3β2γ2S GABAA-R [4]; α3β2γ2S, GABA EC10, mean ± SEM, read-out: pEC50 (converted)
  EC50: 6.92 µM
α3β2γ2S GABAA-R [4]; α3β2γ2S, GABA EC10, number of oocytes in parentheses, read-out: EC50
  EC50: 8.01 µM
α3β2γ2S GABAA-R [4]; α3β2γ2S, ratio to diazepam EC50
  EC50/DZ EC50: 87
α3β2γ2S GABAA-R [4]; α3β2γ2S, ratio to diazepam Emax
  Emax/DZ Emax: 0.78
α5β2γ2S GABAA-R [5]; [9]
  IC50: 9.6 µM
α5β2γ2S GABAA-R [5]; ratio to diazepam IC50
  IC50/DZ IC50: 355
α1β2γ3 GABAA-R; [3H]Ro15-1788 displacement, α1β2γ3, n = 3, read-out: IC50
  IC50: 2.3 µM
α1β2γ3 GABAA-R; α1β2γ3, mean ± SEM, n = 3, read-out: pIC50 (converted)
  IC50: 2.24 µM
α1β2γ3 GABAA-R; α1β2γ3, ratio to diazepam IC50
  IC50/DZ IC50: 10.5
α3β2γ2S GABAA-R [6]; [9]
  IC50: 7.7 µM
α3β2γ2S GABAA-R [6]; [10]
  IC50: 7.59 µM
α3β2γ2S GABAA-R [6]; ratio to diazepam IC50
  IC50/DZ IC50: 158
α5β2γ3 GABAA-R; [3H]Ro15-1788 displacement, α5β2γ3, n = 3, read-out: IC50
  IC50: 10 µM
α5β2γ3 GABAA-R; α5β2γ3, mean ± SEM, n = 3, read-out: pIC50 (converted)
  IC50: 9.77 µM
α5β2γ3 GABAA-R; α5β2γ3, ratio to diazepam IC50
  IC50/DZ IC50: 120
α2β2γ3 GABAA-R; [3H]Ro15-1788 displacement, α2β2γ3, n = 3, read-out: IC50
  IC50: 20 µM
α2β2γ3 GABAA-R; α2β2γ3, mean ± SEM, n = 3, read-out: pIC50 (converted)
  IC50: 18.2 µM
α2β2γ3 GABAA-R; α2β2γ3, ratio to diazepam IC50
  IC50/DZ IC50: 115
α2β2γ2S GABAA-R [7]; [10]
  IC50: 24 µM
α2β2γ2S GABAA-R [7]; ratio to diazepam IC50
  IC50/DZ IC50: 759
α1β2γ2S GABAA-R [8]; [9]
  IC50: 6.3 µM
α1β2γ2S GABAA-R [8]; ratio to diazepam IC50
  IC50/DZ IC50: 218
